Assay results from patent US8658616B2, “Nucleoside aryl phosphoramidates and their use as anti-viral agents for the treatment of hepatitis C virus” (University College Cardiff Consultants Limited, priority 2006, dated 2014).
“And” between values parts separate entries of the source, which are not always exact repeats. Equal values may be shown once. Read-outs that look alike come from different tables or passages of the source.

Legend:
[1] = tested on: subgenomic HCV replicons I389luc-ubi-neo/NS3-3′/5.1 (Huh 5-2); assay: Anti-HCV assay in Huh 5-2 cells (luciferase replicon); type: cell-based, hepatitis C virus (HCV); details: for potency with respect to HCV compared with compound CHC5 (free nucleoside): comparison of Table I data
Description: (§1) Anti-HCV assay in Huh 7 cells. Huh 7 cells containing subgenomic HCV replicons I389luc-ubi-neo/NS3-3′/5.1 (Huh 5-2) or I377/NS3-3′/wt (Huh 9-13) have been described (Lohmann V, Korner F, Koch J, Herian U, Theilmann L, Bartenschlager R. (1999) Replication of subgenomic hepatitis C virus RNAs in a hepatoma cell line. Science 285:110-113. Lohmann V, Korner F, Dobierzewska A, Bartenschlager R. (2001) Mutations in hepatitis C virus RNAs conferring cell culture adaptation. J Virol. 75:1437-1449.). Cells were grown in Dulbecco's modified Eagle's Medium (DMEM; Gibco, Merelbeke, Belgium) supplemented with 10% heat-inactivated fetal bovine serum (FCS) (Integro, Zaandam, The Netherlands), 1× non-essential amino acids (Gibco), 100 IU/ml penicillin (Gibco), 100 μg/ml streptomycin (Gibco) and 250 μg/ml Geneticin (G418, Gibco) for Huh 5-2 cells, 1000 μg/ml G418 for Huh 9-13 cells
Anti-HCV Assay in Huh 5-2 Cells.
Huh 5-2 cells were seeded at a density of 5×10^3 per well in a tissue culture treated white 96-well view plate (Packard, Canberra, Canada) in complete DMEM supplemented with 250 μg/ml G418. Following incubation for 24 h at 37° C. (5% CO2) medium was removed and serial dilutions in complete DMEM (without G418) of the test compounds were added in a total volume of 100 μl. After 4 days of incubation at 37° C., cell culture medium was removed and luciferase activity was determined using the Steady-Glo luciferase assay system (Promega, Leiden, The Netherlands); the luciferase signal was measured using a Luminoskan Ascent (Thermo, Vantaa, Finland). The 50% effective concentration (EC50) was defined as the concentration of compound that reduced the luciferase signal by 50%.

[2] = CC50 (cytotoxicity, Table I); type: cell-based; details: human, Huh 7 cells; method and cell line not described
[3] = tested on: subgenomic HCV replicons I377/NS3-3′/wt (Huh 9-13); assay: Anti-HCV assay in Huh 9-13 cells (RT-qPCR of replicon RNA); type: cell-based, hepatitis C virus (HCV); details: read-out: HCV Huh 9-13 EC50
Description: as §1
Anti-HCV Assay in Huh 9-13 Cells.
Huh 9-13 cells were seeded at a density of 5×10^3 cells per well in 96-well cell culture plates in complete DMEM supplemented with 1000 μg/ml G418. Following incubation for 24 h at 37° C. cell culture medium was removed and serial dilutions of the test compounds in complete DMEM without G418 were added in a total volume of 100 μl. After 4 days of incubation at 37° C., cell culture fluid was removed and monolayers were washed once with phosphate-buffered saline. Cells were lysed in 350 μl RLT buffer (Qiagen, Venlo, The Netherlands) according to the Manufacturer's instruction. Lysates were stored at −80° C. until further use. […]

[4] = tested on: Huh 7 cells; assay: CC50 (cytotoxicity, Table I); type: cell-based; details: method and cell line not described
[5] = Hepatitis C virus, Huh-5-2, 96 h, read-out: HCV Huh 5-2 EC50, Huh 5-2 cells, 4 days incubation, concentration that reduced the luciferase signal by 50%
[6] = Huh 5-2 cells, 4 days incubation, concentration that reduced the luciferase signal by 50%, read-out: HCV Huh 5-2 EC50

SMILES	CC50 [2]	EC50 [1, 5]	also measured
C[C@H](NP(=O)(OC[C@H]1O[C@@H](n2cnc3c(=O)[nH]c(N)nc32)C(C)(O)C1O)Oc1cccc2ccccc12)C(=O)OCc1ccccc1 (stereo partly drawn) [CHC6, β-2′-methyl-guanosine 5′-O-[α-naphthyl(benzoxy-L-alaninyl)]phosphate]	> 50000 nM	–	potency with respect to HCV compared with compound CHC5 (free nucleoside) [1]: greater potency; EC50 ([3]; Hepatitis C virus, 96 h): 60 nM
CCOC(=O)[C@H](C)NP(=O)(OC[C@H]1O[C@@H](n2cnc3c(N)ncnc32)C(C)(O)C1O)Oc1cccc2ccccc12 (stereo partly drawn) [CHC2, β-2′-methyl-adenosine 5′-O-[α-naphthyl(ethoxy-L-alaninyl)]phosphate]	> 50000 nM	120 nM	–
C[C@H](NP(=O)(OC[C@H]1O[C@@H](n2cnc3c(=O)[nH]c(N)nc32)C(C)(O)C1O)Oc1cccc2ccccc12)C(=O)OC(C)(C)C (stereo partly drawn) [CHC8, β-2′-methyl-guanosine 5′-O-[α-naphthyl(tert-butoxy-L-alaninyl)]phosphate]	> 50000 nM	> 50000 nM	–
C[C@H](NP(=O)(OC[C@H]1O[C@@H](n2cnc3c(N)ncnc32)C(C)(O)C1O)Oc1cccc2ccccc12)C(=O)OC(C)(C)C (stereo partly drawn) [CHC4, β-2′-methyl-adenosine 5′-O-[α-naphthyl(tert-butoxy-L-alaninyl)]phosphate]	> 50000 nM	2360 nM	–
CCOC(=O)[C@H](C)NP(=O)(OC[C@H]1O[C@@H](n2cnc3c(=O)[nH]c(N)nc32)C(C)(O)C1O)Oc1cccc2ccccc12 (stereo partly drawn) [CHC7, β-2′-methyl-guanosine 5′-O-[α-naphthyl(ethoxy-L-alaninyl)]phosphate]	> 50000 nM	150 nM	potency with respect to HCV compared with compound CHC5 (free nucleoside) [1]: greater potency; EC50 ([1]; read-out: HCV Huh 5-2 EC50, Huh 5-2 cells, 4 days incubation, concentration that reduced the luciferase signal by 50%): 200 nM and 160 nM
C[C@@]1(O)[C@H](O)[C@@H](CO)O[C@H]1n1cnc2c(=O)[nH]c(N)nc21 [CHC5, β-2′-methyl-guanosine, reference compound]	–	–	EC50 [1, 6]: 3000 nM and 5000 nM; CC50 [4]: > 50000 nM; EC50 ([3]; Huh 9-13 cells, 4 days incubation, concentration that reduced replicon RNA content by 50% (RT-qPCR)): 1500 nM
C[C@H](NP(=O)(OC[C@H]1O[C@@H](n2cnc3c(N)ncnc32)C(C)(O)C1O)Oc1cccc2ccccc12)C(=O)OCc1ccccc1 (stereo partly drawn) [CHC3, β-2′-methyl-adenosine 5′-O-[α-naphthyl(benzoxy-L-alaninyl)]phosphate]	44000 nM	160 nM	–
CC1(O)C(O)[C@@H](CO)O[C@H]1n1cnc2c(N)ncnc21 (stereo partly drawn) [CHC1, β-2′-methyl-adenosine, reference compound]	29000 nM	–	EC50 ([1]; Hepatitis C virus, Huh-5-2, 96 h, Huh 5-2 cells, 4 days incubation, concentration that reduced the luciferase signal by 50%, read-out: HCV Huh 5-2 EC50): 140 nM; EC50 [1, 6]: 80 nM and 130 nM; CC50 [4]: > 33000 nM
C[C@H](NP(=O)(OC[C@H]1O[C@@H](n2cnc3c(=O)[nH]c(N)nc32)C(C)(O)C1O)Oc1ccccc1)C(=O)OCc1ccccc1 (stereo partly drawn) [CHC9, β-2′-methyl-guanosine 5′-O-[phenyl(benzoxy-L-alaninyl)]phosphate]	> 50000 nM	36000 nM	EC50 ([3]; Hepatitis C virus, 96 h): 4100 nM
